From ChEMBL document CHEMBL5244221, “Synthesis and structure-activity relationship studies of cruzain and rhodesain inhibitors” (Eur J Med Chem, 2018)

Test system: not listed separately
Experiment: Lipophilicity, logP of compound
Type: physicochemical
Details: octanol/water

logP	SMILES
5.8	CCCCC(C(=O)COc1c(F)c(F)cc(F)c1F)n1cc([C@@](C)(NCc2ccc3ncccc3c2)C(C)C)nn1 (stereo not given in full)

Test system: Trypanosoma brucei brucei
Experiment: Antitrypanosomal activity against Trypanosoma brucei brucei assessed as parasite growth inhibition
Type: functional, organism-based
Details: not given

EC50 [nM]	SMILES
1220	CCCCCCS(=O)(=O)NCCCC[C@@H](/C=C/S(=O)(=O)c1ccccc1)NC(=O)[C@H](Cc1ccccc1)NC(=O)OCc1ccccc1
1880	O=C(N[C@@H](Cc1ccccc1)C(=O)N[C@H](/C=C/S(=O)(=O)c1ccccc1)CCCCn1nnc2ccccc21)OCc1ccccc1
1180	O=C(N[C@@H](Cc1ccccc1)C(=O)N[C@H](/C=C/S(=O)(=O)c1ccccc1)CCCCNS(=O)(=O)c1ccc2ccccc2c1)OCc1ccccc1

Molecular target: Cathepsin S (Homo sapiens, UniProt P25774)
Sequence (P25774 whole entry): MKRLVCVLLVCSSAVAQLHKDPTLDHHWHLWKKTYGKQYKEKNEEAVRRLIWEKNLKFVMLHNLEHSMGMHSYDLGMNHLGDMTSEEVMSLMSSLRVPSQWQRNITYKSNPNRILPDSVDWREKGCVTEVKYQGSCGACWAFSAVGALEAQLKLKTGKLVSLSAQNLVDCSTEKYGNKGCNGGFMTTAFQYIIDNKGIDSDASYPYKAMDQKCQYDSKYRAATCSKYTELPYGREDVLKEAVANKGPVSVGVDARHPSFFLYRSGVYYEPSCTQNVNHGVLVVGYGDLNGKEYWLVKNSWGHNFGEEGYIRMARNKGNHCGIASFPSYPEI
Experiment: Binding affinity to Cathepsin S (unknown origin) assessed as inhibition constant measured after 22 hrs
Details: not given

Ki [nM]	SMILES
48	O=C(COc1ccccc1I)NCCc1nc2ccccc2[nH]1
220	N#Cc1ccccc1OCC(=O)NCCc1nc2ccccc2[nH]1
360	O=C(COc1ccccc1F)NCCc1nc2ccccc2[nH]1

Test system: Trypanosoma cruzi
Experiment: Antitrypanosomal activity against Trypanosoma cruzi
Type: functional, organism-based
Details: not given

EC50 [nM]	SMILES
1300	Cc1nn(C)c2cc(N3CCN(C(=O)[C@@H]4CCCC[C@H]4C(=O)NC4(C#N)CC4)[C@H](C)C3)ccc12
120	N#CC1(NC(=O)[C@H](Cc2ccccc2)N[C@H](c2ccccc2)C(F)(F)F)CC1

Molecular target: T1, Cruzipain (Trypanosoma cruzi, UniProt P25779)
T1 sequence (P25779 whole entry): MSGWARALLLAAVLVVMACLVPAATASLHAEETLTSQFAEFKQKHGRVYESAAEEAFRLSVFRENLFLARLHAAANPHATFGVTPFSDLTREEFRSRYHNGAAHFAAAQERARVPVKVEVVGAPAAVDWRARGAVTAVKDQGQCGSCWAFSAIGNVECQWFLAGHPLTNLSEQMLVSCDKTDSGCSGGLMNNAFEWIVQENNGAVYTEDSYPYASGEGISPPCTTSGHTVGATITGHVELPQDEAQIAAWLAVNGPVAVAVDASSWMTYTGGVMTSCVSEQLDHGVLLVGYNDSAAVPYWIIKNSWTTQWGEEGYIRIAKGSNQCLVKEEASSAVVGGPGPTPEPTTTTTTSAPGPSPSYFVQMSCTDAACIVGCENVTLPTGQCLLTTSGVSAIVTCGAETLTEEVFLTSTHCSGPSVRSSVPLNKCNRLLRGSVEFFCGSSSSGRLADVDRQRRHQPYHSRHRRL
Experiment: Binding affinity to Trypanosoma cruzi Cruzain assessed as inhibition constant
Details: not given

Ki [nM]	SMILES
80	O=C(COc1ccc2ccccc2c1Br)NCCc1nc2ccccc2[nH]1
251	N#CCNC(=O)[C@H](Cc1ccccc1)NC(=O)c1cc(Br)ccn1

Molecular target: T2, Rhodesain (Trypanosoma brucei rhodesiense, UniProt Q95PM0)
T2 sequence (Q95PM0 whole entry): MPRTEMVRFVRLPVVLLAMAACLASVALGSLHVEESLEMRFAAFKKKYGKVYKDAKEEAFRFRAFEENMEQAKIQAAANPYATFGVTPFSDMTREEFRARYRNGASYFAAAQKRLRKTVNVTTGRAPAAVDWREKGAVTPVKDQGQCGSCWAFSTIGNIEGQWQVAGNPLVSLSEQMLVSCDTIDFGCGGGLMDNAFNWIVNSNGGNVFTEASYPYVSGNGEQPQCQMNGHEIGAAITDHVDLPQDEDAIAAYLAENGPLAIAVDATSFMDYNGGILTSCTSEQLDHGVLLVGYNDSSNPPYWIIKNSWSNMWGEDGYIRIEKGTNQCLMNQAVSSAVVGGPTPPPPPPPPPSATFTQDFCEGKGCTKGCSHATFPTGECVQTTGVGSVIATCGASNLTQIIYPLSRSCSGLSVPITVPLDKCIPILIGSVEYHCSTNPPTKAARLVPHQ
Experiment: Inhibition of Trypanosoma brucei rhodesiense rhodesain
Details: not given

SMILES	IC50 [nM]
OCCNc1ccnc2cc(Cl)ccc12	58000
Clc1ccc2c(NCc3ccccc3)ccnc2c1	34000
CCOC(=O)/C=C/[C@@H](O)[C@H](CCc1ccccc1)NC(=O)[C@H](Cc1ccccc1)NC(=O)OCc1ccccc1	20000
OCCCNc1ccnc2cc(Cl)ccc12	72000
NCCNc1ccnc2cc(Cl)ccc12	126000
O=C(CNc1ccnc2cc(Cl)ccc12)N1CCOCC1	48000
Clc1ccc2c(NCCN3CCOCC3)ccnc2c1	61000
CCOC(=O)/C=C\C(=O)[C@H](CC(C)C)NC(=O)[C@H](Cc1ccccc1)NC(=O)OCc1ccccc1	16.4
CCCNc1ccnc2cc(Cl)ccc12	34200

Test system: Trypanosoma brucei
Experiment: Antitrypanosomal activity against Trypanosoma brucei assessed as parasite growth inhibition
Type: functional, organism-based
Details: not given

EC50 [nM]	SMILES
110	N#Cc1nc(Cc2ccc(Cl)c(Cl)c2)c2ncn(CCCO)c2n1
150	COCCCn1cnc2c(Cc3ccc(Cl)c(Cl)c3)nc(C#N)nc21
260	N#Cc1nc(Cc2ccc(Cl)c(Cl)c2)c2ncn(Cc3ccccc3)c2n1
240	N#Cc1nc(Cc2ccccc2)c2ncn(CC3CCCCO3)c2n1 (stereo not given)
330	N#Cc1nc(C2CCCCC2)c2ncn(Cc3ccccc3)c2n1
270	COc1ccc(Cn2cnc3c(Cc4ccc(Cl)cc4)nc(C#N)nc32)cc1
310	N#Cc1nc(Cc2ccc(Cl)cc2)c2ncn(CCCO)c2n1
60	N#Cc1nc(Cc2ccc(Cl)c(Cl)c2)c2ncn(CCCCCO)c2n1
340	N#Cc1nc(Cc2ccc(Cl)cc2)c2ncn(Cc3cccc(C(F)(F)F)c3)c2n1
270	CCCCn1cnc2c(Cc3cccc(C)c3)nc(C#N)nc21
260	N#Cc1nc(Cc2ccccc2)c2ncn(Cc3cccc(C(F)(F)F)c3)c2n1
390	CCCCn1cnc2c(Cc3ccc(OC)cc3)nc(C#N)nc21
180	CCCCn1cnc2c(Cc3ccc(Cl)c(Cl)c3)nc(C#N)nc21
220	COC(CCn1cnc2c(Cc3ccc(Cl)c(Cl)c3)nc(C#N)nc21)OC

Molecular target: T2, Rhodesain
Experiment: Inhibition of Trypanosoma brucei rhodesiense rhodesain expressed in Pichia pastoris measured for 30 mins using Cbz-Phe-Arg-AMC as substrate
Details: not given

Ki [nM]	SMILES
6	Cc1nc(-c2ccccc2)sc1C(=O)N[C@H](/C=C/S(=O)(=O)c1ccccc1)CCc1ccccc1

Molecular target: T1, Cruzipain
Experiment: Inhibition of Trypanosoma cruzi Cruzain
Details: not given

IC50 [nM]	SMILES
77500	O=C(COCc1ccccc1Br)NCCc1nc2ccccc2[nH]1
2500	Clc1ccc2[nH]c3c(NCCCN4CCOCC4)ncnc3c2c1

Test system: Trypanosoma cruzi
Experiment: Antitrypanosomal activity against Trypanosoma cruzi assessed as inhibition of growth incubated for 4 days by resazurin dye based assay
Type: functional, organism-based
Details: 96 h

EC50 [nM]	SMILES
2510	CC(C)(F)C[C@H](N[C@@H](c1ccc(-c2ccc(S(C)(=O)=O)cc2)cc1)C(F)(F)F)C(=O)NC1(C#N)CC1 [ODANACATIB]

Test system: Trypanosoma cruzi
Experiment: Antitrypanosomal activity against Trypanosoma cruzi assessed as reduction in parasite growth
Type: functional, organism-based
Details: not given

SMILES	IC50 [nM]
OCCNc1ccnc2cc(Cl)ccc12	> 250000
O=C(COCc1ccccc1Br)NCCc1nc2ccccc2[nH]1	34600
NCCCNc1ccnc2cc(Cl)ccc12	> 250000
OCCCNc1ccnc2cc(Cl)ccc12	6500
O=C(CNc1ccnc2cc(Cl)ccc12)N1CCOCC1	> 250000
Clc1ccc2c(NCCN3CCOCC3)ccnc2c1	> 250000
OCCN1CCN(c2ccnc3cc(Cl)ccc23)CC1	> 250000
